According to publication PMC8359378 (British Journal of Clinical Pharmacology, 2021):

Experiments:
[1] = plasma pharmacokinetics in first‐in‐human study; format: in vivo; settings: for Tmax: human, plasma
[2] = test system: rabbit abdominal incision bleeding model; settings: in combination with clopidogrel; cited from earlier work

Nc1ccc(-c2nc([C@H]3CCc4cc(-c5cc(Cl)ccc5-n5cnnn5)cc(=O)n43)c(F)[nH]2)c(F)n1 [ONO‐7684]
time of peak mean plasma concentration post‐dose ([1]; Part A, 80 mg fed cohort): approximately 8 hours | fold increase of AUCinf with a 300‐fold increase in dose ([1]; Part A, 1–300 mg): ~416 fold | fold increase of Cmax with a 300‐fold increase in dose ([1]; Part A, 1–300 mg): about 308 fold | time of peak mean plasma concentration post‐dose ([1]; Part A, each cohort except 80 mg fed): approximately 4 hours | AUC24 accumulation GM ratio Day 14 versus Day 1 ([1]; Part B, 80 mg QD): 2.33 | Cmax accumulation GM ratio Day 14 versus Day 1 ([1]; Part B, 80 mg QD): 1.88 | AUC24 accumulation GM ratio Day 14 versus Day 1 ([1]; Part B, 150 mg QD): 2.22 | Cmax accumulation GM ratio Day 14 versus Day 1 ([1]; Part B, 150 mg QD): 1.90 | AUC24 accumulation GM ratio Day 14 versus Day 1 ([1]; Part B, 250 mg QD): 2.41 | Cmax accumulation GM ratio Day 14 versus Day 1 ([1]; Part B, 250 mg QD): 2.09 | fold increase of AUC24 with a 3.1‐fold increase in dose ([1]; Part B, 80–250 mg QD, Day 14): approximately 3.6 fold | fold increase of Cmax with a 3.1‐fold increase in dose ([1]; Part B, 80–250 mg QD, Day 14): approximately 3.6 fold | time for plasma concentrations to decrease to baseline levels ([1]; Part B, after final dose on Day 14): ≤ 72 h | time to reach steady state ([1]; Part B, daily dosing): ≤ 6 days | Tmax ([1]; oral, median range across cohorts, Part A, fasted cohorts): 2.5 to 4 h | Tmax ([1]; oral, median range across cohorts, Part B, Day 1): 2.5 to 4 h | Tmax ([1]; oral, median range across cohorts, Part B, Day 14): 4 to 4.01 h | Tmax ([1]; po, 1 mg, median (range), Part A, single dose 1 mg, fasted): 2.5 h | Tmax ([1]; po, 5 mg, median (range), Part A, single dose 5 mg, fasted): 3.5 h | Tmax ([1]; po, 80 mg, median (range), Part A, single dose 80 mg, fed): 7.05 h | Tmax ([1]; po, 80 mg, median (range), Part B, 80 mg QD fed, Day 1): 2.5 h | Tmax ([1]; po, 80 mg, median (range), Part B, 80 mg QD fed, Day 14): 4.01 h | Tmax ([1]; po, 150 mg, median (range), Part B, 150 mg QD fed, Day 1): 4 h | Tmax ([1]; po, 150 mg, median (range), Part B, 150 mg QD fed, Day 14): 4.01 h | Tmax ([1]; po, 250 mg, median (range), Part B, 250 mg QD fed, Day 1): 4 h | Tmax ([1]; po, 250 mg, median (range), Part B, 250 mg QD fed, Day 14): 4 h | bleeding risk compared with rivaroxaban [2]: lower bleeding risk than rivaroxaban
